Source: ChEMBL document CHEMBL3044636, “Effectiveness of five insecticides for the control of adults and young stages of Cacopsylla melanoneura (Förster) (Hemiptera: Psyllidae) in a semi-field trial” (2010)
Activity calls are given as the source filed them. No cut-off for these calls is given here.

Experiments:
Cacopsylla melanoneura [1] = test: Insecticidal activity against young stage of Cacopsylla melanoneura in apple plant assessed as mortality at 135 g/ha treated for 1 hr measured after 7 days relative to control; assay type: functional
Cacopsylla melanoneura [2] = test: Insecticidal activity against adult of Cacopsylla melanoneura in apple plant assessed as reduction of progeny per female at 135 g/ha treated for 1 hr measured after 7 days; assay type: functional, organism-based
Cacopsylla melanoneura [3] = test: Insecticidal activity against adult of Cacopsylla melanoneura in apple plant assessed as overwintered female mortality at 135 g/ha treated for 1 hr measured after 1 day relative to control; assay type: functional
Cacopsylla melanoneura [4] = test: Insecticidal activity against young stage of Cacopsylla melanoneura in apple plant assessed as mortality at 135 g/ha treated for 14 days measured after 7 days relative to control; assay type: functional
Cacopsylla melanoneura [5] = test: Insecticidal activity against adult of Cacopsylla melanoneura in apple plant assessed as overwintered female mortality at 135 g/ha treated for 14 days measured after 1 day relative to control; assay type: functional
Cacopsylla melanoneura [6] = test: Insecticidal activity against adult of Cacopsylla melanoneura in apple plant assessed as overwintered female mortality at 135 g/ha treated for 7 days measured after 1 day relative to control; assay type: functional
Cacopsylla melanoneura [7] = test: Insecticidal activity against adult of Cacopsylla melanoneura in apple plant assessed as overwintered female mortality at 135 g/ha treated for 14 days measured after 3 days relative to control; assay type: functional
Cacopsylla melanoneura [8] = test: Insecticidal activity against adult of Cacopsylla melanoneura in apple plant assessed as overwintered female mortality at 135 g/ha treated for 7 days measured after 3 days relative to control; assay type: functional
Cacopsylla melanoneura [9] = test: Insecticidal activity against adult of Cacopsylla melanoneura in apple plant assessed as overwintered female mortality at 135 g/ha treated for 1 hr measured after 3 days relative to control; assay type: functional
Cacopsylla melanoneura [10] = test: Insecticidal activity against adult of Cacopsylla melanoneura in apple plant assessed as reduction of progeny per female at 135 g/ha treated for 14 days measured after 7 days; assay type: functional, organism-based
Cacopsylla melanoneura [11] = test: Insecticidal activity against young stage of Cacopsylla melanoneura in apple plant assessed as mortality at 135 g/ha treated for 7 days measured after 7 days relative to control; assay type: functional
Cacopsylla melanoneura [12] = test: Insecticidal activity against adult of Cacopsylla melanoneura in apple plant assessed as reduction of progeny per female at 135 g/ha treated for 7 days measured after 7 days; assay type: functional, organism-based
Cacopsylla melanoneura [13] = test: Insecticidal activity against young stage of Cacopsylla melanoneura in apple plant assessed as mortality at 787.5 g/ha treated for 7 days measured after 7 days relative to control; assay type: functional
Cacopsylla melanoneura [14] = test: Insecticidal activity against adult of Cacopsylla melanoneura in apple plant assessed as overwintered female mortality at 787.5 g/ha treated for 7 days measured after 1 day relative to control; assay type: functional
Cacopsylla melanoneura [15] = test: Insecticidal activity against adult of Cacopsylla melanoneura in apple plant assessed as overwintered female mortality at 787.5 g/ha treated for 14 days measured after 1 day relative to control; assay type: functional
Cacopsylla melanoneura [16] = test: Insecticidal activity against adult of Cacopsylla melanoneura in apple plant assessed as overwintered female mortality at 787.5 g/ha treated for 7 days measured after 3 days relative to control; assay type: functional
Cacopsylla melanoneura [17] = test: Insecticidal activity against young stage of Cacopsylla melanoneura in apple plant assessed as mortality at 787.5 g/ha treated for 14 days measured after 7 days relative to control; assay type: functional
Cacopsylla melanoneura [18] = test: Insecticidal activity against adult of Cacopsylla melanoneura in apple plant assessed as reduction of progeny per female at 787.5 g/ha treated for 7 days measured after 7 days; assay type: functional, organism-based
Cacopsylla melanoneura [19] = test: Insecticidal activity against adult of Cacopsylla melanoneura in apple plant assessed as overwintered female mortality at 787.5 g/ha treated for 14 days measured after 3 days relative to control; assay type: functional
Cacopsylla melanoneura [20] = test: Insecticidal activity against adult of Cacopsylla melanoneura in apple plant assessed as overwintered female mortality at 787.5 g/ha treated for 1 hr measured after 3 days relative to control; assay type: functional
Cacopsylla melanoneura [21] = test: Insecticidal activity against adult of Cacopsylla melanoneura in apple plant assessed as reduction of progeny per female at 787.5 g/ha treated for 1 hr measured after 7 days; assay type: functional, organism-based
Cacopsylla melanoneura [22] = test: Insecticidal activity against adult of Cacopsylla melanoneura in apple plant assessed as reduction of progeny per female at 787.5 g/ha treated for 14 days measured after 7 days; assay type: functional, organism-based
Cacopsylla melanoneura [23] = test: Insecticidal activity against adult of Cacopsylla melanoneura in apple plant assessed as overwintered female mortality at 787.5 g/ha treated for 1 hr measured after 1 day relative to control; assay type: functional
Cacopsylla melanoneura [24] = test: Insecticidal activity against young stage of Cacopsylla melanoneura in apple plant assessed as mortality at 787.5 g/ha treated for 1 hr measured after 7 days relative to control; assay type: functional

CCOc1ccc(C(C)(C)COCc2cccc(Oc3ccccc3)c2)cc1 [ETOFENPROX] was tested, and the Activity (Cacopsylla melanoneura [1]) was 98.3%, the Activity (Cacopsylla melanoneura [2]) was “Active” and the Activity (Cacopsylla melanoneura [3]) was 93.3%. The Activity (Cacopsylla melanoneura [4]) was 100%, the Activity (Cacopsylla melanoneura [5]) was 100% and the Activity (Cacopsylla melanoneura [6]) was 93.3%. It also gave an Activity (Cacopsylla melanoneura [7]) of 100%, an Activity (Cacopsylla melanoneura [8]) of 93.3% and an Activity (Cacopsylla melanoneura [9]) of 100%. The Activity (Cacopsylla melanoneura [10]) was “Active”, the Activity (Cacopsylla melanoneura [11]) was 100% and the Activity (Cacopsylla melanoneura [12]) was “Active”.
For CCOP(=S)(OCC)Oc1nc(Cl)c(Cl)cc1Cl [CHLORPYRIFOS], the Activity (Cacopsylla melanoneura [13]) was 100%, the Activity (Cacopsylla melanoneura [14]) was 100% and the Activity (Cacopsylla melanoneura [15]) was 93.3%. The Activity (Cacopsylla melanoneura [16]) was 100%, the Activity (Cacopsylla melanoneura [17]) was 100% and the Activity (Cacopsylla melanoneura [18]) was “Active”. The Activity (Cacopsylla melanoneura [19]) was 93.3%, the Activity (Cacopsylla melanoneura [20]) was 100% and the Activity (Cacopsylla melanoneura [21]) was “Active”. The Activity (Cacopsylla melanoneura [22]) was “Active”, the Activity (Cacopsylla melanoneura [23]) was 100% and the Activity (Cacopsylla melanoneura [24]) was 98.3%.
